# Assay results reported in ChEMBL document CHEMBL1147942, “Dual M3 antagonists-PDE4 inhibitors. Part 2: Synthesis and SAR of 3-substituted azetidinyl derivatives” (Bioorg Med Chem Lett, 2007).
# Active and inactive are the calls of the source. No cut-off for these calls is given here.
# Legend:
# [1] = target: T1, Phosphodiesterase 4 (Homo sapiens, UniProt P27815+Q08499+Q07343+Q08493); assay: Inhibition of PDE4 in U937 cells; assay type: cell-based; details: u-937
# [2] = target: Muscarinic acetylcholine receptor M3 (Homo sapiens, UniProt P20309); assay: Displacement of [3H]N-methylscopolamine from human recombinant M3 muscarinic receptor expressed in CHO cell membrane; assay type: cell membranes
# Chain of Muscarinic acetylcholine receptor M3 (Homo sapiens, UniProt P20309) (P20309 whole entry): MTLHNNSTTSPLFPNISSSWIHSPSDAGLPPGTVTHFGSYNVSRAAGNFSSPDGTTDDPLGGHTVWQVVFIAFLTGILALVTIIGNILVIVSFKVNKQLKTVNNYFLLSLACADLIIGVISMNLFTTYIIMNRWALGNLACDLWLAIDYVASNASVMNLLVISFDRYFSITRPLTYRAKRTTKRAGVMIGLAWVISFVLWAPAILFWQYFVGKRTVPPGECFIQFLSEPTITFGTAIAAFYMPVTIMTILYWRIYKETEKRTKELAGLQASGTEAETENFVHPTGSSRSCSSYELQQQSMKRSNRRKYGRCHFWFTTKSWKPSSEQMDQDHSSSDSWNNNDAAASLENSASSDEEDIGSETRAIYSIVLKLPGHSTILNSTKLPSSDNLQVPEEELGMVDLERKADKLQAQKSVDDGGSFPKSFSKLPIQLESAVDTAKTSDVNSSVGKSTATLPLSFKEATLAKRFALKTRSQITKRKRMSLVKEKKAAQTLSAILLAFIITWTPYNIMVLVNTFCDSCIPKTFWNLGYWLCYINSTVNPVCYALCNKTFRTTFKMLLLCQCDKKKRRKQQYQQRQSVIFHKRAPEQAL
# [3] = Dissociation constant, pKa of the compound; assay type: physicochemical
# [4] = species on record: Cavia porcellus; details: Trachea
# Description: Activity at PDE4 in guinea pig assessed as effect on LTD4-induced trachea contraction
# [5] = Inhibition of fMLP-induced elastase release from human PMN cells; assay type: functional, cell-based
# [6] = target: T1, Phosphodiesterase 4; assay: Inhibition of PDE4 in U937 cells at high-affinity rolipram binding state; assay type: cell-based; details: u-937
# [7] = species on record: Mus musculus; assay: Inhibition of mKC cells in BALB/c mouse at 10 mg/ml, nose-only aerosol for 15 mins; assay type: functional, organism-based
# [8] = species on record: Mus musculus; assay: Inhibition of PMN cells in BALB/c mouse at 10 mg/ml, nose-only aerosol for 15 mins; assay type: functional, organism-based
# [9] = species on record: Mus musculus; assay: Inhibition of BALF cells in BALB/c mouse at 10 mg/ml, nose-only aerosol for 15 mins; assay type: functional, organism-based
# [10] = target: T1, Phosphodiesterase 4; assay: Inhibition of PDE4 in U937 cells at 10 uM; assay type: cell-based; details: U-937
# [11] = target: Muscarinic acetylcholine receptor M3 (Cavia porcellus, UniProt Q8VH26); assay: Activity at M3 muscarinic receptor in guinea pig assessed as effect on carbachol-induced trachea contraction
# Chain of Muscarinic acetylcholine receptor M3 (Cavia porcellus, UniProt Q8VH26) (Q8VH26 whole entry): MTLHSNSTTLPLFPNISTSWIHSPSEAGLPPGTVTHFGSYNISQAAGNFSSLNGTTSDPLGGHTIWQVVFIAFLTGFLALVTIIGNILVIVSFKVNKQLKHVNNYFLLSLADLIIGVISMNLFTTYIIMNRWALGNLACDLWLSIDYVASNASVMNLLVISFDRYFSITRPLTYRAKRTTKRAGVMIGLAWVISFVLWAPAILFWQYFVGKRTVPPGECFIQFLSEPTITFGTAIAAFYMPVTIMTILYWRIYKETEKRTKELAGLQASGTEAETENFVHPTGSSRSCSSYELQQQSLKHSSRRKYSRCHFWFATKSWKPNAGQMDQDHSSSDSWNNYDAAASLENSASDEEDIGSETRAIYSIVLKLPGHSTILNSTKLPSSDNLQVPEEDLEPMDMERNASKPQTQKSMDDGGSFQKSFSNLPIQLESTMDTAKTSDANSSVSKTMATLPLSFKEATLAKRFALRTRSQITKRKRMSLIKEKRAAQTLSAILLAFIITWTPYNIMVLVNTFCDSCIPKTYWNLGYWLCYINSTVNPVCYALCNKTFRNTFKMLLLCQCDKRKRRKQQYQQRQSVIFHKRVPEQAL
SMILES,IC50 [1],Ki [2],pKa [3],also measured
Cc1c(N2CCCCCC2)nc(C2CC2)nc1N1CC(O)C1,630 nM,158 nM,7,
Cc1c(N2CCCCCC2)nc(C2CC2)nc1N1CCCC1,3200 nM,1.3 nM,,
Cc1c(N2CCCCCC2)nc(C2CC2)nc1N1CC(F)C1,79 nM,200 nM,6.6,pD2 [4]: 7.4; IC50 [5]: 380 nM; Log Ki [6]: -6; Log IC50 [1]: -7.3
Cc1c(NC2CC2)nc(C2CC2)nc1N1CCCCCC1,,,,Activity [7]: Dose-dependent effect; pD2 [4]: 6.1; Activity [8]: Dose-dependent effect; Activity [9]: Dose-dependent effect
Cc1c(N2CCCCCC2)nc(C2CC2)nc1N1CC(C)(C)C1,5000 nM,32 nM,7,
Cc1c(N2CCCCCC2)nc(C2CC2)nc1N1CC(C#N)C1,1000 nM,794 nM,6.4,
c1c(N2CCCCCC2)nc(C2CC2)nc1N1CCC1,790 nM,79 nM,7.4,
COC1CN(c2nc(C3CC3)nc(N3CCCCCC3)c2C)C1,4000 nM,40 nM,6.8,
Cc1c(N2CCCCCC2)nc(C2CC2)nc1N1CCCCC1,,79 nM,,Activity [10]: inactive
Cc1c(N2CCCCCC2)nc(C2CC2)nc1N1CC(=O)C1,500 nM,631 nM,6.4,
Cc1c(N2CCCCCC2)nc(C2CC2)nc1N1CCCCCC1,,40 nM,,Activity [10]: inactive
CC1CN(c2cc(N3CCCCCC3)nc(C3CC3)n2)C1,2000 nM,13 nM,7.5,
FC1CN(c2cc(N3CCCCCC3)nc(C3CC3)n2)C1,200 nM,501 nM,6.9,
Cc1c(N2CCCCCC2)nc(C2CC2)nc1N1CCC1,320 nM,16 nM,7.1,IC50 [5]: 190 nM; Kb [11]: 1000 nM; Log Ki [6]: -5.3; Log IC50 [1]: -6.6
Cc1c(N2CCCCCC2)nc(C2CC2)nc1N1CC(C)C1,790 nM,20 nM,8,
